From ChEMBL document CHEMBL1157539, “Thousands of chemical starting points for antimalarial lead identification” (Nature, 2010)

test system: Plasmodium falciparum; assay: GSK_TCMDC: Inhibition of Plasmodium falciparum 3D7 in whole erythrocytes, using parasite LDH activity as an index of growth.; format: functional, organism-based; conditions: Plasmodium falciparum, 3D7

Row | SMILES | XC50 [nM]
1 | C=C1C(C(=O)OCC)=CN(CC)c2cc(O[C@@H]3CCN(C(=O)OC(C)(C)C)C3)ccc21 | 290
2 | O=C(Nc1ccccc1O)c1ccc(Oc2cccc(C(=O)Nc3ccccc3O)c2)cc1 | 799
3 | CS(=O)(=O)Nc1ccc2[nH]cc(C3CCN(CCCCCNC(=O)/C=C/c4ccc(Cl)c(Cl)c4)CC3)c2c1 | 736
4 | CNc1c2c(nc3ccc(NC(=O)CCCCCCc4ccccc4)cc13)CCCC2 | 915
5 | CCCCCc1ccc(N2C(N)=NC(N)=NC2(C)C)cc1 | 131
6 | CCCCCCCCNCC(O)c1ccc(Cl)c(Cl)c1 (centres undefined) | 819
7 | Cc1cc(=NN=Cc2ccc(Cl)cc2)c2ccc(F)cc2[nH]1 | 757
8 | CCOC(=O)C1=C(C)N=c2sc(=Cc3cc(Cl)ccc3O)c(=O)n2C1c1ccc2c(c1)OCO2 (centres undefined) | 712
9 | Cc1cc(-c2cccc(CNCc3ccc(F)cc3)c2)ccc1S(=O)(=O)NCCN1CCCC1 | 732
10 | COc1ccc(Cl)cc1NC(=O)C(C)N1CCN(S(=O)(=O)c2ccccc2F)CC1 (centres undefined) | 672
11 | CCN(C)C(=O)n1ncc2c3c(N)nc(N)nc3ccc21 | 176
12 | Cc1cnc2ccc(NS(=O)(=O)c3ccc4c(Cl)cccc4c3)cc2c1N1CCNCC1 | 751
13 | CN1CCN(CC(=O)Nc2cccc(-c3cccc(-c4nc5ccccc5[nH]4)c3)c2)CC1 | 1290
14 | COc1cccc(NC(=O)NC2CCN(c3ccnc(Nc4ccc(F)cc4)n3)C2)c1 (centres undefined) | 570
15 | COc1cc(NC(=O)c2sc(-c3ccc(Cl)cc3)cc2Cl)ccc1OCCN1CCCC1 | 976
16 | CC1(C)NC(N)=NC(=N)N1OCC1CCCCC1 | 3.2
17 | Cc1cccc2nc(-c3cccc(-c4cccc(NC(=O)c5ccc(C(N)=O)cc5)c4)c3)[nH]c12 | 323
18 | Cc1[nH]c(C)c(-c2ccc(-c3ccccc3C(F)(F)F)nc2)c(=O)c1Br | 168
19 | O=C(/C=C/c1ccc(Cl)c(Cl)c1)N1CCC(CCN2CCC(c3c[nH]c4ccncc34)CC2)CC1 | 1140
20 | COc1ccc(N2CCN(CCCCNC(=O)c3ccc(NC(=O)c4ccc(C(F)(F)F)cc4)cc3)CC2)c(OC)c1 | 593
21 | CN(C)Cc1cc(Nc2ccnc3cc(Cl)ccc23)ccc1O | 9.49
22 | COc1cc(CNC2Cc3ccccc3C2)ccc1Oc1ccc2nc[nH]c2c1 | 949
23 | Cc1ccc([N+](=O)[O-])cc1NC(=O)N(CC(O)c1ccccc1)C1CCCCC1 (centres undefined) | 730
24 | N=C(N)Nc1nc(-c2ccc(NCc3ccc(CNc4cccc(-c5csc(NC(=N)N)n5)c4)cc3)cc2)cs1 | 310
25 | Cc1[nH]c(C)c(-c2ccc(OCc3ccc(F)cc3)nc2)c(=O)c1Br | 203

Row | SMILES | XC50 [nM]
26 | COc1cc(NC(=O)c2cccs2)c(OC)cc1NC(=O)Nc1cccc(Cl)c1 | 1000
27 | C=CCNC(=O)CCCNC(=N)N | 717
28 | CCc1cn2c3c(cc(C(=O)N[C@@H](Cc4ccccc4)[C@H](O)CNC4CCCCC4)cc13)N(C)S(=O)(=O)C2 | 87.1
29 | O=C(Cc1ccccc1)NC1(c2ccccc2)CCN(CCc2c[nH]c3ccc(F)cc23)CC1 | 878
30 | CCCCCc1cc(OCCN(C)C)cc2c1C(=O)CC(C)(C)O2 | 103
31 | COc1cc2nc(N3CCC(CNC(=O)c4ccc(-c5ccc(C(=O)N(C)C)cc5O)cc4)CC3)nc(N)c2cc1OC | 278
32 | OCC1CCN(Cc2cccc(-c3ccc(-c4nc5cc(F)ccc5[nH]4)cc3)c2)CC1 | 720
33 | CCCO[C@H](C(=O)OC)[C@@H](CC1Cc2ccccc2C1)C(=O)NCCC1=CCCCC1 | 970
34 | COCCOc1cccc(CN2CCC(c3cc4nc(C)cc(C(F)(F)F)n4n3)C2)c1 (centres undefined) | 1330
35 | CC1CN(C(=O)c2sc3ccccc3c2Cl)CC(C)O1 (centres undefined) | 87.9
36 | Cc1cccc(NC(=O)NCc2ccccc2)n1 | 944
37 | N#Cc1ccc2c(c1)CCN(CCC1CCC(Nc3ncnc4ccccc34)CC1)C2 (centres undefined) | 635
38 | CCN1CCN(CCCCNc2c3ccccc3nc3ccccc23)CC1 | 860
39 | COc1ccc2nccc(N3CCN(CCNCc4ccc5c(n4)NC(=O)CS5)CC3)c2n1 | 843
40 | O=c1cc(NCCCCNCc2cccc(C(F)(F)F)c2)[nH]c2ccccc12 | 789
41 | CS(=O)(=O)c1ccc(-c2cncc(Nc3cccc([N+](=O)[O-])c3)c2)cc1 | 773
42 | CCCCCCCN1CCC(CC(=O)Nc2ccnc3ccc(OC)cc23)C(CC)C1 (centres undefined) | 593
43 | CN1CCC(c2c[nH]c3ccc(NC(=O)Nc4ccc(-c5ccncc5)cc4Cl)cc23)CC1 | 836
44 | O=C(NC1CCCC1)c1ccc(N2CCC(NCc3cccc(C(F)(F)F)c3)CC2)cc1 | 1330
45 | COc1ccc(Nc2ncc3c(-c4cccc(NC(=O)CC(C)C)c4)c[nH]c3n2)cc1OC | 826
46 | Cc1cc(C)cc(OCC(O)CN(Cc2cc(Cl)cc(Cl)c2)C(=O)Nc2ccc(Cl)cc2)c1 (centres undefined) | 810
47 | CC(C)CC(=O)NC1CCN(Cc2c(-c3cccs3)nc3ccccc3c2C(=O)N[C@@H](C)C2CCCCC2)CC1 | 819
48 | CCc1cc([C@H]2O[C@@H](n3cnc4c(NCC(c5ccccc5)c5ccccc5)nc(NCCNc5ccccn5)nc43)[C@H](O)[C@@H]2O)on1 | 891
49 | CN1CCC(N2CCN(CCOc3cc(NC(=O)/C=C/c4ccccc4Cl)ccc3Br)CC2)CC1 | 360
50 | CN(C(=O)/C=C/c1cc(C(F)(F)F)ccc1F)C1CCN(CCCCCNC(=O)/C=C/c2ccc(Cl)c(Cl)c2)CC1 | 287

Row | SMILES | XC50 [nM]
51 | CCCCCCc1cc(O)c2c3c(c(=O)oc2c1)CCN(C)C3 | 671
52 | O=C(Nc1cccc(F)c1)NC1CCN(CCCCCNC(=O)C2CC2c2ccc(Cl)c(Cl)c2)CC1 (centres undefined) | 763
53 | Oc1ccc2[nH]c(-c3cccc(F)c3)nc2c1CN1CCC(O)(c2ccccc2)CC1 | 994
54 | Cc1nc(C)c(-c2cccc(Oc3ccc(Cl)cc3)c2)c(O)c1Br | 73.6
55 | Cc1cc(N2C(N)=NC(N)=NC2(C)C)ccc1Cl | 20.9
56 | CCCCN(Cc1cc(Cl)c(OCC)c(OC)c1)c1ccc(C(O)(C(F)(F)F)C(F)(F)F)cc1 | 915
57 | CC12CN3CC(C)(CN(C1)C3c1cc(Br)ccc1O)C2O (centres undefined) | 228
58 | O=C(c1ccc([N+](=O)[O-])o1)N1CCN(c2nc3c(F)cc(F)cc3s2)CC1 | 974
59 | COc1ccc2nc(N3CCNCC3)nc(NCCCc3ccccc3)c2c1 | 1000
60 | C/C=C1\CN2CC[C@H]1C[C@H]2[C@H](O)c1ccnc2ccc(O)cc12 | 601
61 | CC(C)(C)OC(=O)C1CCCN(Cc2ccc(-c3cccc(-c4nc5ccccc5[nH]4)c3)cc2)C1 (centres undefined) | 358
62 | CC(C)CCN1CCC(Oc2ccc(NC(=O)c3ccc4ncccc4c3)cc2Cl)C1 (centres undefined) | 974
63 | CC1(C)NC(N)=NC(=N)N1OCCCOc1cc(Cl)ccc1Cl | 3.2
64 | COc1ccc2nccc(N3CCC(CCNCc4ccc5c(n4)NC(=O)CS5)CC3)c2c1 | 209
65 | CCN(CC)CCCN(C(=O)Nc1c(Cl)cncc1Cl)c1nc(-c2ccc(F)cc2)cs1 | 241
66 | COc1ccc2nccc([C@@H](O)CN3CCC(NCc4cc5cccc(OC)c5o4)CC3)c2c1 | 794
67 | Cc1ccoc1C(=O)Nc1cccc(-c2cccc(-c3nc4ccccc4[nH]3)c2)c1 | 1220
68 | O=C(NC1CCC(CN2CCC(c3c[nH]c4ccccc34)CC2)CC1)c1cnn(-c2ccccc2)c1-c1ccccc1Cl (centres undefined) | 182
69 | COc1ccc(C2CC(c3cccs3)=NN2C(=O)CNc2cccc(C#N)c2)cc1OC (centres undefined) | 1450
70 | CCCN(Cc1ccc(C)cc1)Cc1cc(=O)c2cc(Cl)ccc2[nH]1 | 1050
71 | Cc1ccccc1C1CCN(C2CCC(NC(=O)/C=C/c3ccc(OC(F)(F)F)cc3)CC2)CC1 (centres undefined) | 857
72 | O=C(NC1CCCCC1)N(Cc1cccc(-c2ccc(CNC3CCCC3)cc2)c1)C1CCN(Cc2ccccc2)CC1 | 951
73 | Cc1ccccc1C1CCN(C2CCC(NC(=O)c3cc4cc(C(C)C)ccc4[nH]3)CC2)CC1 (centres undefined) | 695
74 | C=CCNS(=O)(=O)c1ccc(NC(=O)C(C)Oc2ccc([N+](=O)[O-])cc2)cc1 (centres undefined) | 1220
75 | CS(=O)(=O)Nc1ccc2[nH]cc(C3CCN(CC(O)C4CCN(C(=O)/C=C/c5ccc(Cl)c(Cl)c5)CC4)CC3)c2c1 (centres undefined) | 1760

Row | SMILES | XC50 [nM]
76 | CCC(C)CN1CCN(c2ccc(NC(=O)c3cccs3)cc2)C(C)C1 (centres undefined) | 544
77 | Cc1cccc2nc(-c3cccc(-c4ccc(NC(=O)Nc5ccsc5)cc4)c3)[nH]c12 | 116
78 | O=S(=O)(NCCN1CCCC1)c1ccc(-c2cccc(CNCc3ccccc3)c2)s1 | 806
79 | CCSc1ccccc1COc1c(C)nc(N)nc1N | 68.4
80 | O=C1C2C3SC(c4c3ccc3ccccc43)C2C(=O)N1c1ccccc1 (centres undefined) | 770
81 | COc1ccc2c(=NN=Cc3ccncc3)cc(C)[nH]c2c1 | 814
82 | CCCCOc1ccc(C(=O)C(CCC(CNC(C)(C)C)C(=O)c2ccc(OCCCC)cc2)CNC(C)(C)C)cc1 (centres undefined) | 1020
83 | CC(C)(O)CC(C)(C)c1cc(Cl)ccc1O | 455
84 | Nc1ncc(-c2cn[nH]c2)cc1-c1nc2ccc(Cl)cc2[nH]1 | 799
85 | Cc1cc(N2CCC(NS(=O)(=O)c3cccc4cccnc34)CC2)nc(Nc2cccc(C#N)c2)n1 | 748
86 | Cc1cccc(Cn2ccc3c4c(N)nc(N)nc4ccc32)c1 | 7.35
87 | O=C(Nc1ccc(-c2nc3ccccc3[nH]2)cc1)c1ccc(N2CCCC2)c([N+](=O)[O-])c1 | 678
88 | CCNc1cc(C(=O)N[C@@H](Cc2ccccc2)[C@H](O)CNCc2ccc3c(c2)OCCO3)cc(N2CCCCS2(=O)=O)c1 | 1350
89 | CC(=O)Nc1cc(C(=O)Nc2cccc(-c3csc(-c4nc5ccccc5[nH]4)c3)c2)ccc1C | 465
90 | CC(C)CNCc1cccc(-c2ccccc2CN(C(=O)Nc2ccccc2)C2CCN(Cc3ccccc3)CC2)c1 | 642
91 | O=S(=O)(NCCN1CCCC1)c1ccc(-c2cccc(CNC3Cc4ccccc4C3)c2)cc1 | 618
92 | COc1cc(NC(=O)c2cccc([N+](=O)[O-])c2)cc(S(=O)(=O)c2ccc(Cl)cc2)c1 | 1130
93 | COc1ccc(NC(=O)/C=C/c2cc(Br)ccc2F)cc1OCCN(C(C)C)C(C)C | 757
94 | CN(C)c1ccc(-c2ccc(C(=O)NC3CCN(Cc4ccccc4)CC3)s2)cc1 | 1050
95 | O=S(=O)(NCCN1CCCC1)c1ccc(-c2ccc(CNC3Cc4ccccc4C3)cc2)cc1 | 664
96 | Cc1cc(N2CCCC2)nc(Nc2ccc(NC(=O)C(C)C)cc2)n1 | 1100
97 | C=CC[C@@H](C(=O)OCC)[C@@H]1[C@@H](N(CC=C)C(=O)OC(C)(C)C)CCN1C(=O)OCc1ccccc1 | 964
98 | CC(C)[C@H](NC(=O)c1ccc(O)c(-c2cccc(C(F)(F)F)c2)c1)C(=O)NC1CCCc2ccccc21 (some centres undefined) | 930
99 | Cc1cc(N)c2cc(NC(=O)/C=C/c3ccccc3)ccc2n1 | 757
